Results on eight compounds are retold here after PubChem BioAssay (NCI).

Test systems include 786-0 renal; A549 NSCLC; HCT-116 colon; K-562 leukemia; NCI/ADR-RES ovarian; PC-3 prostate; SF-295 CNS; SK-MEL-28 melanoma; SNB-75 CNS; UO-31 renal.
Holding throughout (assay): NCI-60 cell line screen, 48 h

Molecules are shown by their SMILES.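 Tested at 5 concentrations; 48 h exposure; 96-well plates; endpoints linearly interpolated, else capped at highest concentration. Abbreviation: GI50, concentration required for 50% inhibition of growth. TGI marks complete inhibition of growth.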

Consider `CN1C(=O)CNC(=O)[C@H](NC(=O)c2nc3ccccc3cc2O)CSSC[C@H]1C(=O)NCCc1nc2ccccc2cc1O`, for which the GI50 in the experiment with 786-0 renal was 22.1 µM; in the experiment with A549 NSCLC, 32.5 µM; in the experiment with HCT-116 colon, 2.05 µM; with K-562 leukemia, 1.57 µM; in the experiment with NCI/ADR-RES ovarian it was > 88.5 µM; in the experiment on PC-3 prostate, 18.9 µM. Moreover, the GI50 was 14.3 µM with SF-295 CNS, 8.07 µM in the experiment on SK-MEL-28 melanoma, 15 µM in the experiment on SNB-75 CNS and 13.7 µM in the experiment on UO-31 renal. For the same compound, the TGI in the experiment on 786-0 renal is 49 µM; in the experiment on A549 NSCLC it was > 100 µM; in the experiment with HCT-116 colon, 57.6 µM; with K-562 leukemia, 13.9 µM; in the experiment on NCI/ADR-RES ovarian, > 100 µM; with PC-3 prostate, > 70.4 µM. Moreover, the TGI with SF-295 CNS was > 100 µM; in the experiment on SK-MEL-28 melanoma, 35 µM; in the experiment with SNB-75 CNS it was 33.9 µM; in the experiment with UO-31 renal it was 46.1 µM.
`CS(=O)(=O)CCNCc1ccc(-c2ccc3ncnc(Nc4ccc(OCc5cccc(C(F)(F)F)c5)cc4)c3c2)o1`: the GI50 with 786-0 renal was 4.61 µM; in the experiment on A549 NSCLC, 6.49 µM; in the experiment with HCT-116 colon, 5.07 µM; with K-562 leukemia, 3.18 µM; in the experiment on NCI/ADR-RES ovarian, 7.19 µM; in the experiment on PC-3 prostate, 5.63 µM. In addition, the GI50 with SF-295 CNS is 5.08 µM; in the experiment on SK-MEL-28 melanoma, 4.29 µM; in the experiment with SNB-75 CNS, 8.21 µM; in the experiment with UO-31 renal, 4.34 µM. The TGI is 8.85 µM with 786-0 renal; > 25 µM with A549 NSCLC; 10 µM in the experiment with HCT-116 colon; 15 µM in the experiment with K-562 leukemia; > 25 µM in the experiment with NCI/ADR-RES ovarian; 19.9 µM in the experiment with PC-3 prostate. Besides, the TGI was 11.3 µM in the experiment on SF-295 CNS, 8.23 µM in the experiment on SK-MEL-28 melanoma, > 21.1 µM in the experiment with SNB-75 CNS and 10.2 µM with UO-31 renal.
With `CC(=O)O[C@@H]1CO[C@H]2O[C@H]3[C@@H](C(C=O)=C[C@H](O)[C@@H]4C5=C(C(C)C)CC[C@]5(C)CC[C@@]34C)[C@@]2(O)C1=O`, the TGI with 786-0 renal amounted to 0.253 µM; in the experiment with A549 NSCLC it was 5.57 µM; in the experiment with HCT-116 colon, 0.27 µM; in the experiment on K-562 leukemia it was 0.368 µM; in the experiment with NCI/ADR-RES ovarian it was 1.06 µM; in the experiment with PC-3 prostate, 0.368 µM. For the same compound, the TGI in the experiment on SF-295 CNS was determined as 3.98 µM; with SK-MEL-28 melanoma, 0.771 µM; with SNB-75 CNS it was 1.35 µM; with UO-31 renal, 0.598 µM.
For `CCCCCCCCCCCCCCCC(=O)OCC(O)C1OC(=O)C(O)=C1O` (configuration not stated), the TGI with 786-0 renal is 38.8 µM; with A549 NSCLC, 42.9 µM; in the experiment on HCT-116 colon, 36.7 µM; with K-562 leukemia, 77.7 µM; with NCI/ADR-RES ovarian, 79.8 µM; in the experiment with PC-3 prostate, > 100 µM. The TGI with SF-295 CNS was determined as 40.4 µM; in the experiment with SK-MEL-28 melanoma, 41.4 µM; in the experiment on SNB-75 CNS, 46 µM; with UO-31 renal, 59.9 µM.
Take `CCCCCCCCCCCCCCCc1cc(O)ccc1N`: the GI50 in the experiment with 786-0 renal was 2.77 µM; in the experiment on A549 NSCLC, > 100 µM; in the experiment with HCT-116 colon it was > 100 µM; with K-562 leukemia it was 10.7 µM; in the experiment on NCI/ADR-RES ovarian, 5.81 µM; with PC-3 prostate, 0.463 µM. Further, the GI50 is 3.46 µM in the experiment on SF-295 CNS, > 67.3 µM with SK-MEL-28 melanoma, 4.76 µM in the experiment on SNB-75 CNS and 0.685 µM in the experiment with UO-31 renal. Further, the TGI in the experiment with 786-0 renal was 37.2 µM; in the experiment with A549 NSCLC, > 100 µM; with HCT-116 colon, > 100 µM; with K-562 leukemia it was > 38 µM; in the experiment on NCI/ADR-RES ovarian it was 68.8 µM; in the experiment on PC-3 prostate, 10.6 µM. Besides, the TGI in the experiment with SF-295 CNS is > 100 µM; in the experiment with SK-MEL-28 melanoma, > 100 µM; in the experiment with SNB-75 CNS it was 68.9 µM; with UO-31 renal, 9.36 µM.
Regarding `CC(ONC(=O)c1cc(C(F)(F)F)cc(C(F)(F)F)c1)C(=O)Nc1ccc(Cl)cc1` (configuration not stated), the GI50 was 5.61 µM in the experiment on 786-0 renal; 4.68 µM in the experiment with A549 NSCLC; 4.97 µM in the experiment with HCT-116 colon; 5.75 µM in the experiment on K-562 leukemia; 6.2 µM in the experiment on NCI/ADR-RES ovarian; 3.63 µM in the experiment on PC-3 prostate. The GI50 in the experiment with SF-295 CNS is 3.66 µM; in the experiment on SK-MEL-28 melanoma it was 5.4 µM; in the experiment with SNB-75 CNS, 15 µM; in the experiment on UO-31 renal, 4.85 µM. The TGI is 22 µM with 786-0 renal; > 41.3 µM with A549 NSCLC; 16.4 µM with HCT-116 colon; > 45.5 µM with K-562 leukemia; 41.6 µM in the experiment with NCI/ADR-RES ovarian; 18.4 µM in the experiment with PC-3 prostate. The TGI in the experiment with SF-295 CNS is 30.9 µM; in the experiment with SK-MEL-28 melanoma, 37.4 µM; in the experiment on SNB-75 CNS, 70.7 µM; with UO-31 renal, 21.5 µM.
In the case of `CC1(C)N=C(N)N=C(N)N1c1ccc(F)c(C(F)(F)F)c1`, the GI50 in the experiment on 786-0 renal is 0.543 µM; in the experiment with A549 NSCLC, 0.31 µM; with HCT-116 colon, 0.172 µM; in the experiment with K-562 leukemia it was 0.121 µM; in the experiment with NCI/ADR-RES ovarian, > 83.6 µM; in the experiment with PC-3 prostate, 0.256 µM. Also, the GI50 with SF-295 CNS is 0.408 µM; in the experiment with SK-MEL-28 melanoma, 15.9 µM; with UO-31 renal, 8.86 µM. In addition, the TGI with 786-0 renal, in the experiment on HCT-116 colon, in the experiment on K-562 leukemia, with NCI/ADR-RES ovarian, in the experiment on PC-3 prostate and with SK-MEL-28 melanoma was > 100 µM each time. Further, the TGI with SNB-75 CNS and in the experiment with UO-31 renal was > 100 µM in each case.
For `CCN(CC)CCOc1ccc(/C=C2\CC3C4CCC5=CC(=O)CC[C@]5(C)C4CC[C@]3(C)C2=O)cc1OC` (some centres not stated), the GI50 with 786-0 renal was 2.18 µM; in the experiment with A549 NSCLC it was 4.54 µM; in the experiment on HCT-116 colon, 1.85 µM; with K-562 leukemia it was 3.14 µM; in the experiment on NCI/ADR-RES ovarian, 3.22 µM; in the experiment with PC-3 prostate, 2.92 µM. Further, the GI50 with SF-295 CNS is 2.01 µM; in the experiment with SK-MEL-28 melanoma, 2.29 µM; in the experiment with SNB-75 CNS it was 3.02 µM; in the experiment with UO-31 renal, 0.701 µM. In addition, the TGI with 786-0 renal was 4.61 µM; with A549 NSCLC, 58.3 µM; in the experiment on HCT-116 colon, 4.45 µM; in the experiment with K-562 leukemia, > 100 µM; in the experiment with NCI/ADR-RES ovarian, 13 µM; with PC-3 prostate it was 13.9 µM. The TGI in the experiment with SF-295 CNS was 4.06 µM; with SK-MEL-28 melanoma, 5.67 µM; in the experiment on SNB-75 CNS, 7.78 µM; in the experiment with UO-31 renal it was > 100 µM.
